For series [1] the following is noted: cited from earlier work.
Series [2] is described as follows: In vitro diffusion studies with vertical Franz diffusion cells across untreated and microneedle-treated skin. Type of series: in vitro ADME, pig. The settings on record: for Statistical significance of difference in flux, untreated versus microneedle-treated skin: porcine skin, carbamazepine as 20% and 30% ethanol solutions, p < 0.05 considered significant; for Transdermal flux, Microneedle: 500 μm microneedle roller-treated porcine ear skin; for Transdermal flux, Microneedle / Transdermal flux, Passive: 12 h, ± SD, n = 6; for Transdermal flux, Passive: untreated porcine ear skin. As to the method:
Pig ears were purchased from Pel-Freez Arkansas LLC (Rogers, AR, USA). Upon arrival, ears were shaved with an electric hair clipper. Full-thickness skins were obtained by using a scalpel to remove subcutaneous fat from ear cartilage. An electric dermatome (Nouvag®, Goldach, Switzerland) was used to prepare split-thickness skins. The thickness of the skin samples was determined with the Digimatic micrometer (Mitutoyo, Tokyo, Japan). Skin membranes were wrapped in aluminum foil and stored at -20 °C until ready for use. Experiments were approved by the Institutional Animal Care and Use Committee (IACUC) and Institutional Biosafety Committee (IBC) of Touro University, Mare Island-Vallejo, CA, USA. Microchannels were created on porcine skins using solid microneedle rollers and skin samples were then clamped to the diffusion cells. The roller was applied to the pig ear skin 15 times (five times in the vertical, horizontal and diagonal directions). The roller was applied with a force of 5 kg (measured with a weighing balance) for approximately 1 min per application. Three microneedle-treated split-thickness skin (STS) samples were used for the experiment while three untreated skin samples served as controls. […] The drug was placed on porcine skin. The pig skin was sandwiched between the donor and receptor compartments of Franz diffusion cells. The donor compartment and covered with parafilm and aluminum foil to reduce evaporation. The sampling ports were also sealed. […] Extractions were stored in 2 mL amber vials from Agilent Technologies (Agilent, Santa Clara, CA, USA) and stored at -8 °C until shipment to the University of Idaho for analysis. Receptor chambers were replenished after each extraction with 1 mL of fresh, pre-warmed PBS maintained at 37 °C. We carried out in vitro diffusion studies with six vertical Franz Diffusion cells (PermeGear, Hellertown, PA, USA). Each cell has donor compartments and receptor compartments. In each cell, there is a magnetic stirrer, sampling port, and a water jacket maintained at a 37 °C model human body temperature. The receptor compartment has a diffusion area of 1.77 cm^2 and the volume is 12 mL. The receptor compartment was filled with PBS, and we utilized high-vacuum grease (Dow Corning, Midland, MA, USA) and a metal clamp to prevent loss of the drug solution through lateral diffusion. HPLC analysis was performed using an Agilent 1200 Series HPLC system with a diode array detection (DAD) system coupled to an Agilent […] TOF-MS system equipped with an ESI source (Agilent, Santa Clara, CA, USA). […] The injection volume was 5 μL. The mobile phase comprised of 0.1% formic acid in water (solvent A) and 0.1% formic acid in methanol (solvent B). We first used a linear gradient from 15% to 95% B in 7 min, and then isocratic elution was carried out at 95% B for 2 min. The final equilibration was conducted at 15% B for 5 min. We diverted the flow from the mass spectrometer for the first 3 min of the analysis, in order to prevent MS contamination and ion suppression. The flow rate was 0.3 mL·min^-1. The average cumulative amount of drug permeation through porcine skin was plotted as a function of time. Steady-state flux was calculated from the linear portion of the average cumulative amount versus time curve. Six replicates were utilized for each drug. […] (1) […] Statistical analysis was performed using GraphPad Prism 7 (GraphPad Software, Inc., La Jolla, CA, USA). The Mann-Whitney Rank Sum test was carried out to determine statistical significance. […] The average of replicate measurements (n = 6) with corresponding standard deviation was used to plot the graphs.

For series [3] the following is noted: cited from earlier work. The source holds these as a separate data set.
For series [4] the following is noted: cited from earlier work. The source holds these as a separate data set.
Details of series [5]: method as in PMID 23454133. The settings on record: after application of nanostructured lipid carriers; cited from earlier work.
Where [6] appears, read: tiagabine hydrochloride 5 mg/mL in PBS.
Setting [7] is: carbamazepine 1 mg/mL in 20% ethanol/PBS, listed as Carbamazepine in 20% ethanol.
Where [8] appears, read: carbamazepine 1 mg/mL in 30% ethanol/PBS.

Counter-ions that a name gives are not always drawn. Like-named read-outs stand apart in the source and are kept apart here.

The Aqueous solubility is the concentration that dissolves in the medium under given conditions.

Turning to `Cc1ccsc1C(=CCCN1CCC[C@@H](C(=O)O)C1)c1sccc1C` [Tiagabine hydrochloride, tiagabine hydrochloride], the “Blood–brain barrier passage” value in series [1] (after drug administration) is “readily cross the blood–brain barrier”. Further, in series [1], the “Unchanged when excreted as urine” value was “less than 1%” and the Volume of distribution was 1 L/kg. The “Statistical significance of difference in flux, untreated versus microneedle-treated skin” value in series [2] is “statistically significant”. In addition, in series [2] (setting [6]), the “Transdermal flux, Microneedle” value was determined as 86.42 ± 25.66 µg/cm^2/h and the “Transdermal flux, Passive” value is recorded as 12.83 ± 6.30 µg/cm^2/h. In addition, in series [2] (tiagabine hydrochloride in PBS, microneedle versus passive), the “Flux Increase” value was 6.74 fold. In addition, in series [3] (tiagabine hydrochloride), the Partition coefficient is on record as 2.6. In series [4] (tiagabine hydrochloride), the Aqueous solubility is listed as 10 mg/mL.
As for `NC(=O)N1c2ccccc2C=Cc2ccccc21` [Carbamazepine, carbamazepine], in series [1], the Clearance is reported as 0.112 ± 0.0147 L/h/kg and the “Excreted in urine unchanged” value is given as 1%. Further, in series [2] (setting [7]), the “Transdermal flux, Microneedle” value worked out at 10.85 ± 0.11 µg/cm^2/h and the “Transdermal flux, Passive” value is listed as 7.85 ± 0.60 µg/cm^2/h. Moreover, in series [2] (setting [8]), the “Transdermal flux, Microneedle” value was found to be 36.73 ± 1.83 µg/cm^2/h and the “Transdermal flux, Passive” value is on record as 30.74 ± 1.32 µg/cm^2/h. Besides, the “Statistical significance of difference in flux, untreated versus microneedle-treated skin” value in series [2] was “not statistically significant”. The Partition coefficient in series [3] is 2.7 ± 0.3. In addition, in series [4] (at 32 °C in phosphate buffer saline of pH 7.4), the Aqueous solubility was 0.4406 ± 0.0206 mg/mL.
For the compound `Cc1cc2c(s1)Nc1ccccc1N=C2N1CCN(C)CC1` [olanzapine], in series [5], the Transdermal flux enhancement result is “did not observe significant transdermal flux enhancement”.

Source of the values: article PMC5198017, “The Influence of Solid Microneedles on the Transdermal Delivery of Selected Antiepileptic Drugs” (Pharmaceutics, 2016).
